According to ChEMBL document CHEMBL3045460, “Antifungal, mosquito deterrent, and larvicidal activity of N-(benzylidene)-3-cyclohexylpropionic acid hydrazide derivatives” (2013):
≈ marks a conversion by molar mass, not a printed value. Calls of active or inactive are those of the source. The rule behind the calls is not given here.

What was measured:
Aedes aegypti [1] = assay: Insecticidal activity against female adult Aedes aegypti fed on CPDA-1+ATP assessed as biting deterrence activity at 25 nmol/cm2 by six-celled K & D module bioassay; assay type: functional
Phomopsis obscurans = assay: Antifungal activity against Phomopsis obscurans assessed as growth inhibition at 30 uM after 144 hr by 96-well microdilution broth assay; assay type: functional; conditions: Paraphomopsis obscurans, read-out: GI
Colletotrichum fragariae = assay: Antifungal activity against Colletotrichum fragariae assessed as growth inhibition at 0.3 to 30 uM after 48 to 72 hr by 96-well microdilution broth assay; assay type: functional, organism-based
Colletotrichum acutatum = assay: Antifungal activity against Colletotrichum acutatum assessed as growth inhibition at 0.3 to 30 uM after 48 to 72 hr by 96-well microdilution broth assay; assay type: functional, organism-based
Botrytis cinerea = assay: Antifungal activity against Botryotinia fuckeliana assessed as growth inhibition at 0.3 to 30 uM after 48 to 72 hr by 96-well microdilution broth assay; assay type: functional, organism-based
[2] = system: Colletotrichum gloeosporioides; assay: Antifungal activity against Colletotrichum gloeosporioides assessed as growth inhibition at 0.3 to 30 uM after 48 to 72 hr by 96-well microdilution broth assay; assay type: functional, organism-based
Fusarium oxysporum = assay: Antifungal activity against Fusarium oxysporum assessed as growth inhibition at 0.3 to 30 uM after 48 to 72 hr by 96-well microdilution broth assay; assay type: functional, organism-based
Diaporthe ampelina = assay: Antifungal activity against Diaporthe ampelina assessed as growth inhibition at 30 uM after 144 hr by 96-well microdilution broth assay; assay type: functional; conditions: read-out: GI
Aedes aegypti [3] = assay: Insecticidal activity against first-instar larval stage of Aedes aegypti assessed as mortality at 1.6 ppm after 24 hr; assay type: functional, organism-based
Aedes aegypti [4] = assay: Insecticidal activity against first-instar larval stage of Aedes aegypti assessed as mortality at 50 ppm after 24 hr; assay type: functional
Aedes aegypti [5] = assay: Insecticidal activity against first-instar larval stage of Aedes aegypti assessed as mortality after 24 hr; assay type: functional
Aedes aegypti [6] = assay: Insecticidal activity against first-instar larval stage of Aedes aegypti assessed as mortality at 1.6 ppm after 48 hr; assay type: functional
Aedes aegypti [7] = assay: Insecticidal activity against first-instar larval stage of Aedes aegypti assessed as mortality after 48 hr; assay type: functional
Aedes aegypti [8] = assay: Insecticidal activity against first-instar larval stage of Aedes aegypti assessed as mortality at 25 ppm after 24 hr; assay type: functional
Aedes aegypti [9] = assay: Insecticidal activity against first-instar larval stage of Aedes aegypti assessed as mortality at 0.8 ppm after 24 hr; assay type: functional, organism-based
Aedes aegypti [10] = assay: Insecticidal activity against first-instar larval stage of Aedes aegypti assessed as mortality at 0.8 ppm after 48 hr; assay type: functional
Aedes aegypti [11] = assay: Insecticidal activity against first-instar larval stage of Aedes aegypti assessed as mortality at 100 ppm after 24 hr; assay type: functional

SMILES | Activity (Aedes aegypti [1]) [%] | inhibition of growth at 30 µM (Phomopsis obscurans) [%] | growth inhibition (GI) (Colletotrichum fragariae) | growth inhibition (GI) (Colletotrichum acutatum) | growth inhibition (GI) (Botrytis cinerea) | growth inhibition (GI) [2] | growth inhibition (GI) (Fusarium oxysporum) | other results
Cc1ccc(/C=N\NC(=O)CCC2CCCCC2)cc1 | 22 | 86.7 | inactive | inactive | inactive | inactive | inactive | –
O=C(CCC1CCCCC1)N/N=C\c1ccc([N+](=O)[O-])cc1 | 22 | – | inactive | inactive | inactive | inactive | inactive | –
CN(C)c1ccc(/C=N\NC(=O)CCC2CCCCC2)cc1 | 22 | – | inactive | inactive | inactive | inactive | inactive | –
O=C(CCC1CCCCC1)N/N=C\c1ccc(F)cc1 | – | 86.9 | inactive | inactive | inactive | inactive | inactive | inhibition of growth at 30 µM (Diaporthe ampelina): 83.6%
CCN(CC)C(=O)c1cccc(C)c1 [DIETHYLTOLUAMIDE] | 80 | – | – | – | – | – | – | –
O=C(CCC1CCCCC1)N/N=C\c1ccc(Br)cc1 | >50 | – | inactive | inactive | inactive | inactive | inactive | –
O=C(CCC1CCCCC1)N/N=C\c1ccc(O)cc1 | 22 | – | inactive | inactive | inactive | inactive | inactive | –
O=C1C2CC=CCC2C(=O)N1SC(Cl)(Cl)Cl (centres undefined) [CAPTAN] | – | 100 | – | – | – | – | – | inhibition of growth at 30 µM (Diaporthe ampelina): 99.2%
CC(C)c1ccc(/C=N\NC(=O)CCC2CCCCC2)cc1 | 22 | 99.5 | inactive | inactive | inactive | inactive | inactive | Activity (Aedes aegypti [3]): inactive; mortality at 50 ppm (Aedes aegypti [4]): 70%; LD90 (Aedes aegypti [5]): 297.8 ppm; LC50 (Aedes aegypti [5]; Aedes aegypti, Instar larval stage, 24 h, read-out: LD50 (the source's name)): 57.4 mg/L (≈ 191 µM); mortality at 1.6 ppm (Aedes aegypti [6]): 14.7%; LD90 (Aedes aegypti [7]): 19.1 ppm; LC50 (Aedes aegypti [7]; Aedes aegypti, Instar larval stage, 48 h, read-out: LD50 (the source's name)): 4.35 mg/L (≈ 14.5 µM); inhibition of growth at 30 µM (Diaporthe ampelina): 94%; mortality at 25 ppm (Aedes aegypti [8]): 30%; Activity (Aedes aegypti [9]): inactive; mortality at 0.8 ppm (Aedes aegypti [10]): 4%; mortality at 100 ppm (Aedes aegypti [11]): 80%
O=C(CCC1CCCCC1)N/N=C\c1ccccc1 | >50 | – | inactive | inactive | inactive | inactive | inactive | –
O=C(CCC1CCCCC1)N/N=C\c1ccc(Cl)cc1 | >50 | – | inactive | inactive | inactive | inactive | inactive | –
COc1ccc(/C=N\NC(=O)CCC2CCCCC2)cc1 | 22 | 74.1 | inactive | inactive | inactive | inactive | inactive | –
